The compounds below were run against T1, MutSβ (Homo sapiens, UniProt P20585+P43246) (assay: MutSβ ADP Glo Assay). Details: 20nM MutSβ, 30nM CAG DNA, 25 µM ATP, 2 hours at room temperature.
T1 construct: purchased AMRI
Assay type: biochemical
Description: Biological Example A - MutSβ Assay
• MutSβ (supplied by AMRI) stored at -70°C • ADP Glo Kinase Assay Kit (Promega: V9102) stored at -20°C • ATP (supplied within the ADP Glo Kit) stored at -20°C • 1M KCI (Sigma Aldrich: P9333) stored at 2-8°C • 1 M HEPES pH 7.5 (Gibco: M15630-080) stored at 2-8°C • 1M MgCl2 (Sigma Aldrich: M1028-100mL) stored at 2-8°C • Tween-20 (Sigma Aldrich: P1379) (10% solution) stored at 2-8°C • 500mM DTT (Sigma Aldrich: 10197777001) stored at -20°C • CAG loop DNA for MutSβ (made in house) stored at -20°C • MilliQ water stored at room temperature
• 1. Prepare the buffer fresh each day • 2. Take the enzyme from the freezer, thaw in room temperature water and centrifuge at 13,000 rpm for 10 minutes at 2-8C, then make up enzyme and ATP stocks • 3. Quality Control the multidrop head to a %CV of <2% • 4. Add 3µL of 33.34nM MutSβ and 50.01nM CAG looped DNA solution […] to each well in columns 1 and 3-23 of the plate • 5. Pre-incubate the MutSβ and buffer mix for 10 minutes with the compounds • 6. Wash the multidrop head through with MilliQ water (for at least 30 seconds) • 7. Add 3µL of MutSβ Assay buffer (without enzyme) to columns 2 and 24 for the vehicle controls • 8. Wash the multidrop head through with MilliQ water (for at least 30 seconds) • 9. Add 2µL of 62.5µM ATP to each well of the whole plate, then wash with MilliQ water (for a minimum of 30 seconds) • 10. Centrifuge plate for 1 minute at 1000 rpm • 11. Incubate for 2 hours at room temperature • 12. Add 5µL of ADP Glo reagent to each well of the whole plate and wash the multidrop head with MilliQ water (for a minimum of 30 seconds) • 13. Incubate for 40 minutes at room temperature (minimum requirement) • 14. Add 10µL of Kinase Detection Reagent to each well of the whole plate • 15. Wash the multidrop head with MilliQ water more than 1 minute and then dry • 16. Remove the head and put the cover back on for overnight storage • 17. Incubate for 30 minutes at room temperature (minimum requirement) • 18. Read on a microplate reader

T1 sequence (P43246 whole entry): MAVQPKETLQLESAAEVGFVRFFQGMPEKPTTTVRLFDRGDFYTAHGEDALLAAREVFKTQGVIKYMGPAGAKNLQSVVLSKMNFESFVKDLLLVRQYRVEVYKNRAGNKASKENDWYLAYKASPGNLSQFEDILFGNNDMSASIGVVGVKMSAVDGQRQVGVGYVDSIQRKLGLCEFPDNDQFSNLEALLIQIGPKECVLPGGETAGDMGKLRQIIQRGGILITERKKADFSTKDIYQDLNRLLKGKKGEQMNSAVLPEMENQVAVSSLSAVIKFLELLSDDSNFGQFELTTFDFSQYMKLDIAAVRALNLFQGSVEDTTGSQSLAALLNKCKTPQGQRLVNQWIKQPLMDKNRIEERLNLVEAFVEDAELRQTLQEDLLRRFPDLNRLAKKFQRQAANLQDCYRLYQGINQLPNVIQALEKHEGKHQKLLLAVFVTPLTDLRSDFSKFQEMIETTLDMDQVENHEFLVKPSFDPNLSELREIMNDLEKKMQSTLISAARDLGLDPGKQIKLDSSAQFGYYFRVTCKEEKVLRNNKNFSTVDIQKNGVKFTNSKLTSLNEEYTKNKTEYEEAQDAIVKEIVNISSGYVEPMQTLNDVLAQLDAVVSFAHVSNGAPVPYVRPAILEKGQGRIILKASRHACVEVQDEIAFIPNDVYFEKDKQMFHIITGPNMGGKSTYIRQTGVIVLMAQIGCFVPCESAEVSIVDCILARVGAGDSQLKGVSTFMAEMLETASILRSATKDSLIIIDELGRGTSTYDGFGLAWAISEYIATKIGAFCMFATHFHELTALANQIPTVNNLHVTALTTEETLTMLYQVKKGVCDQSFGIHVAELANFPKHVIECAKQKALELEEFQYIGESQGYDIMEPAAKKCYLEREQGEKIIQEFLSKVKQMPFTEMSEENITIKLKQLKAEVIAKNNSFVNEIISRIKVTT
T1 sequence (P20585 whole entry): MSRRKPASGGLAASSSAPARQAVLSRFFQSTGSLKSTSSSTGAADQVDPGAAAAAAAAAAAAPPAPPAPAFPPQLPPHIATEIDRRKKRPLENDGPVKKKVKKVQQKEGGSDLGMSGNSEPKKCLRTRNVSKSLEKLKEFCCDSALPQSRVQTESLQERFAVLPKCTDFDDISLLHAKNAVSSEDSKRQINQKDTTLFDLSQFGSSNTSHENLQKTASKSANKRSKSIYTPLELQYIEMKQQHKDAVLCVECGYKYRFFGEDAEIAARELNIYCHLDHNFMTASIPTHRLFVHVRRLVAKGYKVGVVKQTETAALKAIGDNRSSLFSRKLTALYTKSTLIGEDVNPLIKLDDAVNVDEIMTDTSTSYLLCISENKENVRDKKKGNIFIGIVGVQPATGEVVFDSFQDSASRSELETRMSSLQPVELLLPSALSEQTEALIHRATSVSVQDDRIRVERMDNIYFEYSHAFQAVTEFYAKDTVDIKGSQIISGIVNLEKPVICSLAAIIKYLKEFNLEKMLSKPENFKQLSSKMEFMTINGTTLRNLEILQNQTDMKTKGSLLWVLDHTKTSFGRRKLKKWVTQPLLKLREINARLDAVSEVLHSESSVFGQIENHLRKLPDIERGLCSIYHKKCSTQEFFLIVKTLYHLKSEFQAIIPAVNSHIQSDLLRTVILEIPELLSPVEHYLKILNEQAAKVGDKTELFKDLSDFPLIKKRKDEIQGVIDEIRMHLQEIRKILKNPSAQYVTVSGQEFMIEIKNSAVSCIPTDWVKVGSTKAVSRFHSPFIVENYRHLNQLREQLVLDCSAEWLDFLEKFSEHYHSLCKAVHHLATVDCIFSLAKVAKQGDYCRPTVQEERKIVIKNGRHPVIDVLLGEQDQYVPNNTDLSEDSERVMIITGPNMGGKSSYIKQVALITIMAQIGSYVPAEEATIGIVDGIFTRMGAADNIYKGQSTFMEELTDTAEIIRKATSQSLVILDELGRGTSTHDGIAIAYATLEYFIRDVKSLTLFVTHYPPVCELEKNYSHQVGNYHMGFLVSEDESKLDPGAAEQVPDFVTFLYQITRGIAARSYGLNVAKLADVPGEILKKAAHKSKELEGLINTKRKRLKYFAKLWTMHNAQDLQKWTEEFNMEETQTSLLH

| SMILES | IC50 [µM] |
| --- | --- |
| CNS(=O)(=O)OCC(=O)Nc1nc(COC2CCN(C)CC2)c(Cc2cccc(Cl)c2)s1 [Example 50, 2-((5-(3-chlorobenzyl)-4-(((1-methylpiperidin-4-yl)oxy)methyl)thiazol-2-yl)amino)-2-oxoethyl methylsulfamate] | 10 to 50 |
| CNS(=O)(=O)OCC(=O)Nc1nc(CO)c(Cc2ccc(C)cc2)s1 [Example 51, 2-((4-(hydroxymethyl)-5-(4-methylbenzyl)thiazol-2-yl)amino)-2-oxoethyl methylsulfamate] | 10 to 50 |
| CNS(=O)(=O)OCC(=O)Nc1nc(C)c(C(C)(C)c2cccc(Cl)c2)s1 [Example 52, 2-((5-(2-(3-chlorophenyl)propan-2-yl)-4-methylthiazol-2-yl)amino)-2-oxoethyl methylsulfamate] | 10 to 50 |
| CNS(=O)(=O)OCC(=O)Nc1nc(C)c(Cc2cc(F)cc(Cl)c2)s1 [Example 54, 2-((5-(3-chloro-5-fluorobenzyl)-4-methylthiazol-2-yl)amino)-2-oxoethyl methylsulfamate] | 1 to 10 |
| CNS(=O)(=O)OCC(=O)Nc1nc(C)c(Cc2cc(Cl)ccc2F)s1 [Example 55, 2-((5-(5-chloro-2-fluorobenzyl)-4-methylthiazol-2-yl)amino)-2-oxoethyl methylsulfamate] | 1 to 10 |
| CNS(=O)(=O)OCC(=O)Nc1nc(C=O)c(Cc2cccc(Cl)c2)s1 [Example 56, 2-((5-(3-chlorobenzyl)-4-formylthiazol-2-yl)amino)-2-oxoethyl methylsulfamate] | 1 to 10 |
| CNS(=O)(=O)OCC(=O)Nc1nc(CN2CCOCC2)c(Cc2cccc(Cl)c2)s1 [Example 58, 2-((5-(3-chlorobenzyl)-4-(morpholinomethyl)thiazol-2-yl)amino)-2-oxoethyl methylsulfamate] | 10 to 50 |
| CNC(=O)OCc1nc(NC(=O)COS(=O)(=O)NC)sc1Cc1cccc(Cl)c1 [Example 60, 2-((5-(3-chlorobenzyl)-4-(((methylcarbamoyl)oxy)methyl)thiazol-2-yl)amino)-2-oxoethyl methylsulfamate] | 1 to 10 |

Further lines, results first:

| IC50 [µM] | SMILES |
| --- | --- |
| 1 to 10 | CNS(=O)(=O)OCC(=O)Nc1nc(C)c(Cc2cccc(Cl)c2F)s1 [Example 53, 2-((5-(3-chloro-2-fluorobenzyl)-4-methylthiazol-2-yl)amino)-2-oxoethyl methylsulfamate] |
| 0.5 to 1 | CCN(C(=O)COS(=O)(=O)NC)c1nc(C)c(Cc2cccc(Cl)c2)s1 [Example 57, 2-((5-(3-chlorobenzyl)-4-methylthiazol-2-yl)(ethyl)amino)-2-oxoethyl methylsulfamate] |
| ≤ 0.5 | CNS(=O)(=O)OCC(=O)N(C)c1nc(C)c(Cc2ccc(Cl)c(Cl)c2)s1 [Example 59, 2-((5-(3,4-dichlorobenzyl)-4-methylthiazol-2-yl)(methyl)amino)-2-oxoethyl methylsulfamate] |
| 0.5 to 1 | CNS(=O)(=O)OCC(=O)Nc1nc(C)c(Oc2cccc(Cl)c2)s1 [Example 61, 2-((5-(3-chlorophenoxy)-4-methylthiazol-2-yl)amino)-2-oxoethyl methylsulfamate] |
| ≤ 0.5 | CNS(=O)(=O)OCC(=O)Nc1nc2c(s1)C(c1cccc(Cl)c1)CCC2 (stereo not shown) [Example 62, 2-((7-(3-chlorophenyl)-4,5,6,7-tetrahydrobenzo[d]thiazol-2-yl)amino)-2-oxoethyl methylsulfamate] |

Source: patent EP4574817A1 (LoQus23 Therapeutics Limited, priority 2023, dated 2025)
